Test results reported in PMC9775322, “An Integrated Analysis of Mechanistic Insights into Biomolecular Interactions and Molecular Dynamics of Bio-Inspired Cu(II) and Zn(II) Complexes towards DNA/BSA/SARS-CoV-2 3CL^pro by Molecular Docking-Based Virtual Screening and FRET Detection” (Biomolecules, 2022).

Tests used:
[1] = molecular target: T1, BSA (Bos taurus, UniProt P02769); assay: BSA binding by fluorescence emission titration; design: species or system bovine; conditions: for KSV (Stern-Volmer binding constant), BSA binding, Method–I / Kass (association binding constant), BSA binding, Stern–Volmer Method–II / n (number of binding sites), BSA binding, Stern–Volmer Method–II: BSA emission 350 nm; for Kq (bimolecular quenching rate constant), BSA binding, Stern–Volmer Method–I: Kq=KSV/τ0, τ0 = 10^−8 S, BSA emission 350 nm (λex 278 nm); for P (ratio of fluorescence quantum efficiency), BSA binding: intercept of F/F0 vs 1/[BSA]; for ΔGb°, BSA binding, Stern–Volmer Method–II: −RT ln Kass, T = 298 K
T1 construct: purchased Sigma Aldrich
T1 sequence (P02769 25-607): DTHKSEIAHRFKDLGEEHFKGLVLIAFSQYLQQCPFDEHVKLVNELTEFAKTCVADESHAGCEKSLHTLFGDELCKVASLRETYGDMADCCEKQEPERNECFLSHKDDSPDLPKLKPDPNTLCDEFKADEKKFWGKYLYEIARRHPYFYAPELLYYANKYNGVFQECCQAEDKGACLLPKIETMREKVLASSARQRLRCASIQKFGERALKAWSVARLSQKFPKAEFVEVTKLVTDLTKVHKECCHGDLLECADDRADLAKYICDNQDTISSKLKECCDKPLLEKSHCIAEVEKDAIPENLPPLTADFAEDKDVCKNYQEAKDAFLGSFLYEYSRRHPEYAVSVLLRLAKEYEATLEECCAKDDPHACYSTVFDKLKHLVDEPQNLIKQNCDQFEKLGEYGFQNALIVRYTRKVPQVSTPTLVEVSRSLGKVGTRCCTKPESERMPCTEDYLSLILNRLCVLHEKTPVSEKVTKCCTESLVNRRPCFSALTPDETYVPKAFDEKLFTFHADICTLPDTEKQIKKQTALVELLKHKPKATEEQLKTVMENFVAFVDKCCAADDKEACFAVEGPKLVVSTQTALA
Procedure: The DNA/BSA binding properties were acquired from the emission spectral titration with the supporting of the JASCO FP-6300 spectrofluorometer between the 200 and 800 nm regions. It is additional evidence for the complexes’ manner of DNA binding. While DNA (200 µM) was present or absent, we vigilantly monitored the intensity variations between 610 nm and 510 nm during the initial emission and excitation of EB [27]. Correspondingly, the emission titrations for BSA interaction with different concentrations between 2.5 μM and 25 μM for all samples were conducted in a Tris-HCl buffer solution (pH: 7.4) between the regions of 300 nm and 400 nm. […]
experiments were measured for BSA interaction in the range of 300 –400 nm, using a fluorescence cuvette with a path length of 1 cm. all test compounds have no substantial fluorescence emission rate in any of the above ranges in Tris-HCl buffer solution (pH=7.2).
Therefore, BSA interaction tests are not impaired in the interaction with the complexes [ 28].
In the experiment, the emission of BSA solution (25 µM) in 50 mM Tris –HCl /1 mM NaCl […]
While raising the test compound ’s concentration (0-25 µM), the intensity of the BSA decreases due to static quenching in the generation of ground state BSA – complex adduct. The observations of the BSA molecule at the excitation wavelength (278 nm) and at the emission wavelength (350 nm) that both of […]
(§1) Fcorr = Fobs × e[(Aex× dex) + (Aem× dem)]/ 2 = Fobs × e(Aex + Aem)/ 2 (S12) Fcorr and F obs are represented as the IFE-corrected emission and observed (uncorrected) emission intensities, respectively. d ex and d em are denoted as the cuvette path lengths in the […]
(§2) excitation and emission directions, respectively. Also, the alteration in absorbance (OD) at the excitation and fluorescence wavelengths, respectively, is sometimes referred to as A ex and […]
(§3) F = 1+KSV [Q] = 1+ Kq τ0 (S13)
(§4) Where [Q] is represented as the sample concentration (quencher), the emission intensities F 0 and F are those in the […] of the quencher, respectively.
(§5) F ) = log Kass + nlog [Q] (S14)
(§6) KEB[EB] = Kapp[compound] (S15)
(§7) ∆F = (F 0–F), Equation (16) was utilized to examine the Lineweaver –Burk binding constant (KLB) from the linear regression plot of 1/(F0–F) vs 1/[Q]. […]
(§8) γ =(F0–F)/F0, CF is denoted as the concentration of sample alone, the linear regression plot of (γ/CF) vs γ was employed to support equation (17), which was used to determine the values of KSA and n, respectively.
(§9) 2.2.6. FRET calculation by Förster’s theory
(§10) Calculating FRET (Fluorescence Resonance Energy Transfer) is a crucial approach in determining the critical distance (r) between donor (BSA) and acceptor (test compound) molecules, in which the binding affinity between the BSA-complex systems could be evalued according to Förster’s theory. The overlap of the emission spectrum of the donor (BSA) and the absorption spectrum of the acceptor (compound) describes that the acceptor (compound) group may get excited as a result of the excited donor's (BSA) energy being lost to the ground

[2] = test system: EB–DNA; assay: Ethidium bromide displacement assay by fluorescence spectral titration; format: binding, calf; conditions: for LWB Method KLB (Lineweaver-Burk binding constant) / Scatchard Analysis KSA (Scatchard association binding constant) / Scatchard Analysis n (number of binding sites) / n (number of binding sites), DNA binding, Stern–Volmer Method–II / KSV (Stern-Volmer binding constant), DNA binding, Method–I / Kass (association binding constant), DNA binding, Stern–Volmer Method–II: EB–DNA; for LWB Method KLB (Lineweaver-Burk binding constant) / Scatchard Analysis KSA (Scatchard association binding constant) / Scatchard Analysis n (number of binding sites) / n (number of binding sites), DNA binding, Stern–Volmer Method–II / Kq (bimolecular quenching rate constant), DNA binding, Stern–Volmer Method–I: pH 7.4; for KSV (Stern-Volmer binding constant), DNA binding, Method–I / Kass (association binding constant), DNA binding, Stern–Volmer Method–II: pH 7.4, 610 nm; for Kq (bimolecular quenching rate constant), DNA binding, Stern–Volmer Method–I: Kq=KSV/τ0, τ0 = 10^−8 S, 610 nm; for P (ratio of fluorescence quantum efficiency of DNA bound and free complex): intercept of F/F0 vs 1/[DNA]; for ΔGb°, DNA binding, Stern–Volmer Method–II: −RT ln Kass, T = 298 K
Procedure: The DNA/BSA binding properties were acquired from the emission spectral titration with the supporting of the JASCO FP-6300 spectrofluorometer between the 200 and 800 nm regions. It is additional evidence for the complexes’ manner of DNA binding. While DNA (200 µM) was present or absent, we vigilantly monitored the intensity variations between 610 nm and 510 nm during the initial emission and excitation of EB [27]. Correspondingly, the emission titrations for BSA interaction with different concentrations between 2.5 μM and 25 μM for all samples were conducted in a Tris-HCl buffer solution (pH: 7.4) between the regions of 300 nm and 400 nm.
2.2.5. DNA/BSA binding assay by fluorescence titration
The titration was executed by the JASCO FP-6300 spectrofluorometer in the range of 200 – […]
DNA. To assess the relative DNA binding abilities of the test compound to CT-DNA, ethidium bromide (EB) was utilized as a reference. In the experiment, EB solution (20 µM) in 50 mM Tris –HCl /1 mM NaCl buffer solution (pH=7.2) was incubated with the DNA […]
solution (240 µM) at saturated binding levels and stored in a dark place for two hours. The tested compounds (1 –240 µM) were titrated with pre-incubated EB-bound DNA.
Additionally, from 610 nm to 510 nm, in the absence and presence of DNA (240 µM), the intensity changes for initial emission and excitation of EB were cautiously observed. As a conjugate planar molecule, EB's acquired fluorescence intensity is extremely low, but it […]
concentration of the compounds (0-240 µM), the intensity of the EB-DNA system decreases owing to the quenching effect of DNA by the manner of static quenching. It further attributes the generation of ground state DNA – complex adduct owing the cationic metal complexes interacting with the negatively charged oxygen in phosphodiester of DNA and the contraction of DNA pushes a few EB molecules out of DNA base pairs [ 27].
as §1, §2, §3, §4, §5, §6, §7, §8, §9, §10

**Q.** With `[Cu+2].[O-]c1ccccc1N=Cc1ccc(N2CCOCC2)cc1.[O-]c1ccccc1N=Cc1ccc(N2CCOCC2)cc1.c1cnc2c(c1)ccc1cccnc12` [(1b), [Cu^II(L)2(phen)]] as the molecule, how does the “KSV (Stern-Volmer binding constant), BSA binding, Method–I” value (shortened to “KSV … BSA binding, Method–I”) [1] read?
**A.** 95640 M⁻¹

**Q.** And the “Kass (association binding constant), BSA binding, Stern–Volmer Method–II” value [1]?
**A.** 71990 M⁻¹

**Q.** And the “n (number of binding sites), BSA binding, Stern–Volmer Method–II” value (shortened to “n (number of binding sites), BSA binding”) [1]?
**A.** 1.021

**Q.** And the “Kq (bimolecular quenching rate constant), BSA binding, Stern–Volmer Method–I” value (from here on “Kq … BSA binding, Stern–Volmer Method–I”) [1]?
**A.** 9.564e+12 M⁻¹ s⁻¹

**Q.** And the “P (ratio of fluorescence quantum efficiency), BSA binding” value [1]?
**A.** 0.322

**Q.** And the “ΔGb°, BSA binding, Stern–Volmer Method–II” value (from here on “ΔGb°, BSA binding”) [1]?
**A.** –27.71 kJM^−1

**Q.** And the “LWB Method KLB (Lineweaver-Burk binding constant)” value (from here on “LWB Method KLB”) [2]?
**A.** 21654 M⁻¹

**Q.** What about the “Scatchard Analysis KSA (Scatchard association binding constant)” value (“Scatchard Analysis KSA” for short) [2] of the same molecule?
**A.** 33302 M⁻¹

**Q.** What about the “Scatchard Analysis n (number of binding sites)” value (“Scatchard Analysis n” for short) [2] of the same molecule?
**A.** 1.008

**Q.** What about the “n (number of binding sites), DNA binding, Stern–Volmer Method–II” value (“n (number of binding sites), DNA binding” for short) [2] of the same molecule?
**A.** 1.088

**Q.** What about the “KSV (Stern-Volmer binding constant), DNA binding, Method–I” value (“KSV … DNA binding, Method–I” for short) [2] of the same molecule?
**A.** 40303 M⁻¹

**Q.** And the “Kass (association binding constant), DNA binding, Stern–Volmer Method–II” value (from here on “Kass … DNA binding, Stern–Volmer Method–II”) [2]?
**A.** 31817 M⁻¹

**Q.** And the “Kq (bimolecular quenching rate constant), DNA binding, Stern–Volmer Method–I” value (shortened to “Kq … DNA binding, Stern–Volmer Method–I”) [2]?
**A.** 4.0303e+12 M⁻¹ s⁻¹

**Q.** What about the “P (ratio of fluorescence quantum efficiency of DNA bound and free complex)” value [2] of the same molecule?
**A.** 0.128

**Q.** What about the “ΔGb°, DNA binding, Stern–Volmer Method–II” value (shortened to “ΔGb°, DNA binding”) [2] of the same molecule?
**A.** –26.942 kJM^−1

**Q.** How did the “KSV … BSA binding, Method–I” value [1] turn out when `[O-]c1ccccc1N=Cc1ccc(N2CCOCC2)cc1.[O-]c1ccccc1N=Cc1ccc(N2CCOCC2)cc1.[Zn+2].c1cnc2c(c1)ccc1cccnc12` [(2b), [Zn^II(L)2(phen)]] was run?
**A.** 79350 M⁻¹

**Q.** And the “Kass (association binding constant), BSA binding, Stern–Volmer Method–II” value [1]?
**A.** 59840 M⁻¹

**Q.** And the “n (number of binding sites), BSA binding” value [1]?
**A.** 1.009

**Q.** What about the “Kq … BSA binding, Stern–Volmer Method–I” value [1] of the same molecule?
**A.** 7.935e+12 M⁻¹ s⁻¹

**Q.** What about the “P (ratio of fluorescence quantum efficiency), BSA binding” value [1] of the same molecule?
**A.** 0.285

**Q.** And the “ΔGb°, BSA binding” value [1]?
**A.** –27.25 kJM^−1

**Q.** And the “LWB Method KLB” value [2]?
**A.** 18218 M⁻¹

**Q.** And the “Scatchard Analysis KSA” value [2]?
**A.** 32941 M⁻¹

**Q.** And the “Scatchard Analysis n” value [2]?
**A.** 0.909

**Q.** And the “n (number of binding sites), DNA binding” value [2]?
**A.** 1.083

**Q.** What about the “KSV … DNA binding, Method–I” value [2] of the same molecule?
**A.** 20669 M⁻¹

**Q.** What about the “Kass … DNA binding, Stern–Volmer Method–II” value [2] of the same molecule?
**A.** 19688 M⁻¹

**Q.** What about the “Kq … DNA binding, Stern–Volmer Method–I” value [2] of the same molecule?
**A.** 2.0669e+12 M⁻¹ s⁻¹

**Q.** What about the “P (ratio of fluorescence quantum efficiency of DNA bound and free complex)” value [2] of the same molecule?
**A.** 0.124

**Q.** And the “ΔGb°, DNA binding” value [2]?
**A.** –24.873 kJM^−1

**Q.** How did the “KSV … BSA binding, Method–I” value [1] turn out when `Oc1ccccc1N=Cc1ccc(N2CCOCC2)cc1` [(HL), 2-(4-morpholinobenzylideneamino)phenol] was run?
**A.** 26390 M⁻¹

**Q.** And the “n (number of binding sites), BSA binding” value [1]?
**A.** 0.958

**Q.** What about the “Kq … BSA binding, Stern–Volmer Method–I” value [1] of the same molecule?
**A.** 2.639e+12 M⁻¹ s⁻¹

**Q.** And the “P (ratio of fluorescence quantum efficiency), BSA binding” value [1]?
**A.** 0.225

**Q.** What about the “ΔGb°, BSA binding” value [1] of the same molecule?
**A.** –23.86 kJM^−1

**Q.** What about the “LWB Method KLB” value [2] of the same molecule?
**A.** 6985 M⁻¹

**Q.** What about the “Scatchard Analysis KSA” value [2] of the same molecule?
**A.** 23194 M⁻¹

**Q.** What about the “Scatchard Analysis n” value [2] of the same molecule?
**A.** 1.096

**Q.** And the “n (number of binding sites), DNA binding” value [2]?
**A.** 0.976

**Q.** What about the “KSV … DNA binding, Method–I” value [2] of the same molecule?
**A.** 11636 M⁻¹

**Q.** And the “Kass … DNA binding, Stern–Volmer Method–II” value [2]?
**A.** 9882 M⁻¹

**Q.** What about the “Kq … DNA binding, Stern–Volmer Method–I” value [2] of the same molecule?
**A.** 1.1636e+12 M⁻¹ s⁻¹

**Q.** And the “P (ratio of fluorescence quantum efficiency of DNA bound and free complex)” value [2]?
**A.** 0.090

**Q.** And the “ΔGb°, DNA binding” value [2]?
**A.** –22.790 kJM^−1
